Columns and labels:
Dog intraocular pressure = Dog intraocular pressure (applanation pneumatonometry) with hyperemia/miosis; type: in vivo; settings: for Dog IOP (1 day): 25 μl to the ocular surface, IOP before and at 6 hours after drug; for Hyp: first part of Hyp/Mlosis cell; for Mlosis: second part of Hyp/Mlosis cell
Experimental: The compounds were prepared at the said concentrations in a vehicle comprising 0.1% polysorbate 80 and 10 mM tris (hydroxy methyl) aminomethane hydrochloride (TRIS) base. Dogs were treated by administering 25 μl to the ocular surface, the contralateral eye received vehicle as a control. Intraocular pressure was measured by applanation pneumatonometry. Dog intraocular pressure was measured immediately before drug administration and at 6 hours thereafter.

EP4 = target: T1, EP4 (Oryctolagus cuniculus, UniProt Q28691); assay: EP4-activity: relaxation of smooth muscle of isolated rabbit jugular vein; type: cell-based; settings: nM printed only with EC50 in the table head
T1 construct: smooth muscle of isolated rabbit jugular vein; from tissue; host or cells: isolated rabbit jugular vein smooth muscle
T1 sequence (Q28691 whole entry): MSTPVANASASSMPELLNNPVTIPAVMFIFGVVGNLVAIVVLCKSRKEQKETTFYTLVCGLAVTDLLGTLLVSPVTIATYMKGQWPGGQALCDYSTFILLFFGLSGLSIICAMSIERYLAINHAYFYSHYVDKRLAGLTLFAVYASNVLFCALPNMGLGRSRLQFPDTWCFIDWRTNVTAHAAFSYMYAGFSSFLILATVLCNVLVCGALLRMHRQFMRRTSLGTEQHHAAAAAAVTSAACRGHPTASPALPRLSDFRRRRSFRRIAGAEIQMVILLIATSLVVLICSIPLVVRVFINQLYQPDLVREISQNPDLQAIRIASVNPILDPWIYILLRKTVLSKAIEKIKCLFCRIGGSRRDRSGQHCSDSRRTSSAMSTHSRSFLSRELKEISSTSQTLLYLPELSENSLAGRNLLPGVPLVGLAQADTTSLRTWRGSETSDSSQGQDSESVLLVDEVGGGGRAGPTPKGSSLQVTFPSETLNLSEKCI
Experimental: (§1) Activity at different prostanoid receptors was measured in vitro in isolated smooth muscle preparations. FP-activity was measured as contraction of the isolated feline iris sphincter. EP4-activity was measured as relaxation of smooth muscle of isolated rabbit jugular vein. TP-vasoconstrictor activity was measured as contraction of rings of the isolated rat thoracic aorta. Effects on platelets from healthy human donors were measured by incubating platelet-rich plasma with the compounds described herein. Inhibition of aggregation was determined by the ability of the compounds described herein to inhibit platelet aggregation in platelet-rich plasma induced by 20 μM adenosine diphosphate (ADP).

TP = target: T2, TP (Rattus norvegicus, UniProt P34978); assay: TP-vasoconstrictor activity: contraction of rings of the isolated rat thoracic aorta; type: cell-based; settings: EC50 (nM) printed in the first part of the table head
T2 construct: rings of the isolated rat thoracic aorta; from tissue; host or cells: rings of isolated rat thoracic aorta
T2 sequence (P34978 1-341): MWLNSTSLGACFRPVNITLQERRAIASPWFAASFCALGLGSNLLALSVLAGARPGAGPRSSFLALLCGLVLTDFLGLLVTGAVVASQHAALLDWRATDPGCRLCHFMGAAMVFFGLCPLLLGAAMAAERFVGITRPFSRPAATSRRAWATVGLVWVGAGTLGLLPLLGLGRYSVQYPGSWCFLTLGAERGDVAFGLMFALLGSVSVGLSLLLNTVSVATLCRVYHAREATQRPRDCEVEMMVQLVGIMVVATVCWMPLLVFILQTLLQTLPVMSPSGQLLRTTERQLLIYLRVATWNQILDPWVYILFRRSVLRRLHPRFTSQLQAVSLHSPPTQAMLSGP
Experimental: as §1

## Cc1ccc(CCC(O)/C=C/C2C(O)CC(O)[C@@H]2C/C=C\CCCC(N)=O)o1 (some centres unmarked)
Dog intraocular pressure; 0.1%
  Dog IOP (1 day): 0.1%/−2.1
  Hyp: 0.75
  Mlosis: pinpoint
EP4
  IC25 EP4: 3760 nM

## O=C(O)CCC/C=C\C[C@H]1C(O)CC(O)C1/C=C/C(O)CCc1sc2ccccc2c1Cl (some centres unmarked)
EP4
  IC25 EP4: 21190 nM

## NC(=O)CCC/C=C\C[C@H]1C(O)CC(O)C1/C=C/C(O)CCc1cc(Br)c(Br)s1 (some centres unmarked)
EP4
  IC25 EP4: 165 nM

## COC(/C=C/C1C(O)CC(O)[C@@H]1C/C=C\CCCC(=O)O)CCc1ccco1 (some centres unmarked)
EP4
  IC25 EP4: 57 nM

## Cc1ccc(CCC(O)/C=C/C2C(O)CC(O)[C@@H]2C/C=C\CCCC(=O)O)o1 (some centres unmarked)
TP
  EC50: > 10000 nM
Dog intraocular pressure; 0.1%
  Dog IOP (1 day): 0.1%/−2.7
  Hyp: 1.13
  Mlosis: pinpoint
EP4
  IC25 EP4: 23 nM

## COC(/C=C/C1C(O)CC(O)[C@@H]1C/C=C\CCCC(=O)O)CCc1ccsc1C (some centres unmarked)
EP4
  IC25 EP4: 100 nM

## O=C(O)CCC/C=C\C[C@H]1C(O)CC(O)C1/C=C/C(O)CCc1cc(Br)c(Br)s1 (some centres unmarked)
TP
  EC50: 692 nM
EP4
  IC25 EP4: 23 nM

## NC(=O)CCC/C=C\C[C@H]1C(O)CC(O)C1/C=C/C(O)CCc1ccco1 (some centres unmarked)
Dog intraocular pressure; 0.01%
  Dog IOP (1 day): −3.2
  Hyp: 1.5
  Mlosis: pinpoint
Dog intraocular pressure; 0.1%
  Dog IOP (1 day): −4.4
  Hyp: 1.0
  Mlosis: pinpoint
EP4
  IC25 EP4: 620 nM

## Cc1cc(CCC(O)/C=C/C2C(O)CC(O)[C@@H]2C/C=C\CCCC(N)=O)cs1 (some centres unmarked)
Dog intraocular pressure; 0.1%
  Dog IOP (1 day): 0.1%/−3.6
  Hyp: 0.6
  Mlosis: pinpoint
EP4
  IC25 EP4: 1630 nM
